Activity calls are given as the source filed them. The calls are words filed in the database; no cut-off is given here.
What was measured:
U-937 = assay: Antiproliferative against human U937 cells incubated for 72 hrs by MTT assay; assay type: functional, cell-based; conditions: U-937, 72 h
K562 = assay: Antiproliferative against human K562 cells incubated for 72 hrs by MTT assay; assay type: functional, cell-based; conditions: K562, 72 h
CCRF-CEM [1] = assay: Antiproliferative against human CCRF-CEM cells incubated for 72 hrs by MTT assay; assay type: functional, cell-based
[2] = target: T1, DNA topoisomerase 1 (Homo sapiens) (UniProt P11387); assay: Inhibition of DNA topoisomerase-1 (unknown origin) at 100 uM relative to control
T1 sequence (whole entry): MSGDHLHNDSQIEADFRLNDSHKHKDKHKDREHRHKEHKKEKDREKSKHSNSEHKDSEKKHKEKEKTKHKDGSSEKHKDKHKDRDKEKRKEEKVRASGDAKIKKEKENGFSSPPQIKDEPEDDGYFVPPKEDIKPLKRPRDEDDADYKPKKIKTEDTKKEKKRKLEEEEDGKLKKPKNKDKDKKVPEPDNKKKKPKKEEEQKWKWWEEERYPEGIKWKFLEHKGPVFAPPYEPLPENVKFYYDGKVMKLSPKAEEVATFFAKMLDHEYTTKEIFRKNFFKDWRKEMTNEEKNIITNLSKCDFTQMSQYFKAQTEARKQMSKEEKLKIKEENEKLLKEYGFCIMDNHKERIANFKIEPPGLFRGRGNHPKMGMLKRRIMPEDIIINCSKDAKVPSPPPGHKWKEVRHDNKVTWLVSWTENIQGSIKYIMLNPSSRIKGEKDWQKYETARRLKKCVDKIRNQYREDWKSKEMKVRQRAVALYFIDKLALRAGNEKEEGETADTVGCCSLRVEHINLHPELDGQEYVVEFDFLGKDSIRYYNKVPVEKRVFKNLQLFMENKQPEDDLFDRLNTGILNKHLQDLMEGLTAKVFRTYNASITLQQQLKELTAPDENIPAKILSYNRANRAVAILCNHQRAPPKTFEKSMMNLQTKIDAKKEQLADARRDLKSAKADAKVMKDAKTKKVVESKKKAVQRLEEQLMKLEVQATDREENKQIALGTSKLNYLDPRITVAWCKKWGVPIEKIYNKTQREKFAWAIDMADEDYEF

CCRF-CEM [3] = assay: Induction of apoptosis in human CCRF-CEM cells at 0.5 to 2 uM incubated for 48 hrs by Annexin V-FITC/PI staining based fluorescence based assay; assay type: functional, cell-based
[4] = target: DNA topoisomerase II (Homo sapiens) (UniProt P11388+Q02880); assay: Inhibition of DNA topoisomerase-2 (unknown origin) at 100 uM relative to control; assay type: protein assay
CCRF-CEM [5] = assay: Induction of apoptosis in human CCRF-CEM cells assessed as increase in late apoptotic cells incubated for 48 hrs by Annexin V-FITC/PI staining based fluorescence based assay; assay type: functional, cell-based
CCRF-CEM [6] = assay: Induction of DNA damage in human CCRF-CEM cells assessed as increase in gammaH2AX incubated for 48 hrs by Western blot analysis; assay type: functional, cell-based
CCRF-CEM [7] = assay: Induction of apoptosis in human CCRF-CEM cells assessed as increase in early apoptotic cells at 2 uM incubated for 48 hrs by Annexin V-FITC/PI staining based fluorescence based assay; assay type: functional, cell-based
CCRF-CEM [8] = assay: Induction of apoptosis in human CCRF-CEM cells at 0.5 to 2 uM incubated for 48 hrs by Hoechst 33342/PI staining based fluorescence based assay; assay type: functional, cell-based
CCRF-CEM [9] = assay: Induction of apoptosis in human CCRF-CEM cells assessed as increase in early apoptotic cells at 0.5 uM incubated for 48 hrs by Annexin V-FITC/PI staining based fluorescence based assay; assay type: functional, cell-based
CCRF-CEM [10] = assay: Induction of apoptosis in human CCRF-CEM cells assessed as increase in necrotic cells incubated for 48 hrs by Annexin V-FITC/PI staining based fluorescence based assay; assay type: functional, cell-based

| Compound | IC50 (U-937) | IC50 (K562) | IC50 (CCRF-CEM [1]) | inhibition [4] | further results |
| --- | --- | --- | --- | --- | --- |
| COc1cc(NS(C)(=O)=O)ccc1Nc1c2ccccc2nc2ccccc12 [AMSACRINE] | 0.08 µM | 0.71 µM | 0.03 µM | – | – |
| COc1cccc2c(NCc3ccc(C(=O)Nc4ccccc4)cc3)c3ccccc3nc12 | 0.23 µM | 1.43 µM | 0.89 µM | – | – |
| COc1ccc2nc3ccccc3c(NCc3ccc(C(=O)Nc4ccccc4)cc3)c2c1 | 0.33 µM | 1.24 µM | 0.82 µM | 17.8% | Activity (CCRF-CEM [5]): Dose-dependent effect; Activity (CCRF-CEM [6]): Dose-dependent effect; Activity (CCRF-CEM [7]): Active; inhibition [2]: 7.2%; Activity (CCRF-CEM [8]): Active; Activity (CCRF-CEM [9]): Active; Activity (CCRF-CEM [10]): Dose-dependent effect |
| NCc1ccc(C(=O)Nc2ccccc2)cc1 | > 10 µM | > 10 µM | > 10 µM | – | – |
| COc1ccc2nc3cc(Cl)ccc3c(NCc3ccc(C(=O)Nc4ccccc4)cc3)c2c1 | 1.8 µM | 2.37 µM | 1.3 µM | – | – |
| COc1cc([C@@H]2c3cc4c(cc3[C@@H](O[C@@H]3O[C@@H]5CO[C@@H](C)O[C@H]5[C@H](O)[C@H]3O)[C@H]3COC(=O)[C@H]23)OCO4)cc(OC)c1O | – | – | – | 40.9% | – |

Second part, led by results:

| IC50 (U-937) | IC50 (K562) | IC50 (CCRF-CEM [1]) | inhibition [4] | Compound | further results |
| --- | --- | --- | --- | --- | --- |
| 1.42 µM | 1.32 µM | 0.9 µM | – | COc1ccc2c(NCc3ccc(C(=O)Nc4ccccc4)cc3)c3ccccc3nc2c1 | – |
| > 10 µM | > 10 µM | > 10 µM | – | COc1ccc2nc3cc(Cl)ccc3c(Cl)c2c1 | – |
| 1.32 µM | 1.55 µM | 1.56 µM | 24% | O=C(Nc1ccccc1)c1ccc(CNc2c3ccccc3nc3ccccc23)cc1 | inhibition [2]: 44.9%; Activity (CCRF-CEM [3]): Active |
| 1.49 µM | 0.91 µM | 1.28 µM | – | COc1ccccc1NC(=O)c1ccc(CNc2c3ccccc3nc3ccccc23)cc1 | – |

Source: ChEMBL document CHEMBL4406876, “Design, synthesis and biological research of novel N-phenylbenzamide-4-methylamine acridine derivatives as potential topoisomerase I/II and apoptosis-inducing agents” (Bioorg Med Chem Lett, 2019)
